Converted amounts (≈) assume the structure as drawn.
Assays:
Assay in all cases: MIC testing, agar dilution method
Type in all cases: cell-based
[1] = test system: Escherichia coli (E. coli); details: 36.5 °C, 24–48 h
Source text: (§1) The synthesized pleuromutilin derivatives 3 and 4a–l, with tiamulin fumarate used a as reference drug, were screened for their in vitro antibacterial activity against Escherichia coli (E. coli), Staphylococcus aureus (S. aureus), Methicillin-resistant Staphylococcus aureus (MRSA), Staphylococcus vitulinus (S. vitulinus), Staphylococcus warneri (S. warneri), and Staphylococcus haemolyticus (S. haemolyticus). The antibacterial activities are reported in Table 1 as the minimum inhibitory concentration (MIC) using the agar dilution method. The MICs of the 13 new pleuromutilin derivatives in vitro against E. coli ranged from 10 to 80 μg/mL; against S. aureus, MRSA, S. vitulinus, S. warneri, and S. haemolyticus ranged from 0.156 to 40 μg/mL, respectively.
(§2) The MIC for the synthesized compounds (3 and 4a–l) and tiamulin fumarate used as a reference drug were determined using the agar dilution method according to the National Committee for Clinical Laboratory Standards (NCCLS). Tested compounds were dissolved in 25%–40% DMSO to a solution with a concentration of 1280 µg/mL, whereas tiamulin fumarate was directly dissolved in 10 mL of distilled water at the same concentration as the tested compounds. All the solutions were then diluted twofold with sterile water to provide 11 dilutions (final concentration is 0.625 µg/mL). A 2 mL volume of the 2-fold serial dilution of each test compound/drug was incorporated into 18 mL of hot Muellere-Hinton agar medium. Inoculums, including five Gram (+), S. aureus, MRSA, S. vitulinus, S. warneri, S. haemolyticus, and one Gram (−), E. coli were prepared from blood slants and adjusted to approximately 10^5–10^6 CFU/mL with sterile saline (0.90% NaCl). A 10 µL amount of bacterial suspension was spotted onto Muellere-Hinton agar plates containing serial dilutions of the compounds/drug. The plates were incubated at 36.5 °C for 24–48 h. The same procedure was repeated in triplicate.

[2] = test system: Methicillin-resistant Staphylococcus aureus (MRSA); details: 36.5 °C, 24–48 h
Source text: as §1, §2

[3] = test system: Staphylococcus aureus (S. aureus); details: 36.5 °C, 24–48 h
Source text: as §1, §2

[4] = test system: Staphylococcus haemolyticus (S. haemolyticus); details: 36.5 °C, 24–48 h
Source text: as §1, §2

[5] = test system: Staphylococcus vitulinus (S. vitulinus); details: Mammaliicoccus vitulinus, 36.5 °C, 24–48 h
Source text: as §1, §2

[6] = test system: Staphylococcus warneri (S. warneri); details: 36.5 °C, 24–48 h
Source text: as §1, §2

SMILES: C=C[C@]1(C)C[C@@H](OC(=O)CSc2nc3ccc(N)cc3[nH]2)[C@]2(C)[C@H](C)CC[C@]3(CCC(=O)[C@H]32)[C@@H](C)[C@@H]1O [Compound 3, 14-O-((5-Amino-benzimidazole-2-yl)thioacetyl) Mutilin]
- MIC [1]: 10 µg/mL (≈ 19 µM)
- MIC [2]: 0.156 µg/mL (≈ 0.297 µM)
- MIC [3]: 0.156 µg/mL (≈ 0.297 µM)
- MIC [4]: 0.156 µg/mL (≈ 0.297 µM)
- MIC [5]: 0.156 µg/mL (≈ 0.297 µM)
- MIC [6]: 0.156 µg/mL (≈ 0.297 µM)
